Assay [1] has as its target T1, TYK2-JH2 (aa 575-869, in-house) protein (Homo sapiens, UniProt P29597).
T1 construct: TYK2-JH2 (aa 575-869, in-house) protein; made in house
The experiment in a line: TYK2-JH2 biochemical assay (HTRF, blocking of TYK2-JH2 protein with its probe). Type of assay: binding. Particulars: for IC50: HTRF, 0.2 nM recombinant TYK2-JH2, Probe 1; for Biochemical assay Selectivity fold (TYK2/JAK1): TYK2-JH2 vs JAK1-JH2 biochemical IC50. The procedure, abridged: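 Recombinant TYK2-JH2 (0.2 nM) pre-incubated with compounds (10 doses, 5-fold dilutions) 0.5 h at RT in HEPES pH 7.5 buffer with MgCl2, BSA, DTT, Brij-35; biotinylated probe (10 nM working solution, KD=10 nM) plus anti-6His Tb cryptate/streptavidin-XL665 added, 1 h RT. HTRF ratio read; IC50 from four-parameter logistic fit.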

The target in assay [2] is T2, JAK1-JH2 protein (aa 561-860, in-house) (Homo sapiens, UniProt P23458).
T2 construct: JAK1-JH2 protein (aa 561-860, in-house); made in house
In words: JAK1-JH2 biochemical assay (HTRF, blocking of JAK1-JH2 protein with its probe). Type of assay: binding. Particulars: 1.17 nM recombinant JAK1-JH2, Probe 2. The method, boiled down:
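HTRF probe-displacement assay using recombinant human JAK1 pseudokinase domain (aa 561-860, 1.17 nM in pre-incubation step), pre-incubated 0.5 h at room temperature with 10-dose 5-fold compound series. Buffer: 20 mM HEPES pH 7.5, 10 mM MgCl2, 0.005% BSA, 2 mM DTT, 0.015% Brij-35. IC50 by four-parameter logistic fit of 615/665 nm ratio.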
In general terms: TR-FRET usually uses a lanthanide donor and a delayed reading to cut background.

Assay [3] relates to JAK2, TYK2/p-STAT4 (Tyr693) activated by IL-12 in NK-92 cell line. The experiment in a line: IL-12-JAK2, TYK2/p-STAT4 (Tyr693) inhibition cellular assay. Particulars: for IC50: NK92, 0.5 h, NK-92 cells, IL-12 40 ng/ml, 30 min, read-out: Cellular assay pSTAT4/IL-12 IC50; for Cellular assay Selectivity fold (TYK2/JAK1): pSTAT4/IL-12 vs pSTAT3/IL-6 cellular IC50. Type of assay: cell-based. The method, boiled down: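 NK-92 cells were starved overnight without IL-2 and seeded at 5×10^4 per well in 1640 medium with 0.1% BSA. Lysate p-STAT4 (Tyr693) was measured by AlphaLISA SureFire, and IC50 was fitted with a 4-parameter logistic model.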

In assay [4] the test system is JAK1/p-STAT3(Tyr705) activated by IL-6 in TF-1 cell line. The experiment in a line: IL-6-JAK1/p-STAT3(Tyr705) inhibition cellular assay. It is filed as cell-based. Particulars: Homo sapiens, 0.5 h; TF-1 cells, IL-6 50 ng/ml, 30 min; read-out: Cellular assay pSTAT3/IL-6 IC50.

T1 sequence (P29597 575-869): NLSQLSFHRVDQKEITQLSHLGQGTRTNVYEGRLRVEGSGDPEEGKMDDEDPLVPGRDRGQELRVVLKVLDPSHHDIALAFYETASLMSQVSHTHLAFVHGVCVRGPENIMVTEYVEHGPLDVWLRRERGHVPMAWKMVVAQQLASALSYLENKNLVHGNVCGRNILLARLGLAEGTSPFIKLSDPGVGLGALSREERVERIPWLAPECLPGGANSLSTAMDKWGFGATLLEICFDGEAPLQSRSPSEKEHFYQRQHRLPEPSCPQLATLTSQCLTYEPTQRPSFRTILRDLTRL
T2 sequence (P23458 561-860): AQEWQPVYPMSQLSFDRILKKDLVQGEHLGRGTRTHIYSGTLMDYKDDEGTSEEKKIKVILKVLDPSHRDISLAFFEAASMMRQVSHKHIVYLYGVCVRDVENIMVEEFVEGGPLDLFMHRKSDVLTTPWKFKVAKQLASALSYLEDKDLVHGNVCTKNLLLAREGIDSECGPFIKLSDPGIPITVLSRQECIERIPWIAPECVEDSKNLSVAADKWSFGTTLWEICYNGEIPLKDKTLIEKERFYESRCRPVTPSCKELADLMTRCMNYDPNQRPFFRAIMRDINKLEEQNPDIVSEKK

On to `CNC(=O)c1nnc(NC(=O)C2CC2)cc1Nc1nc2ccc(N3CCC(C4CN(C)C4)CC3)cn2n1` [Example P1, 6-(cyclopropanecarboxamido)-N-methyl-4-((6-(4-(1-methylazetidin-3-yl)piperidin-1-yl)-[1,2,4]triazolo[1,5-a]pyridin-2-yl)amino)pyridazine-3-carboxamide], for which the IC50 in assay [1] was 0.039 nM; in assay [2], 1.4 nM; in assay [3], 29 nM; in assay [4], over 10000 nM. Further, in assay [1], the “Biochemical assay Selectivity fold (TYK2/JAK1)” value amounted to 36 fold. Also, in assay [3], the “Cellular assay Selectivity fold (TYK2/JAK1)” value was over 344 fold.

For the compound `CNC(=O)c1nnc(NC(=O)C2CC2)cc1Nc1nc2ccc(N3CC(C(=O)N4CCSC4)C3)cn2n1` [Example Q1, 6-(cyclopropanecarboxamido)-N-methyl-4-((6-(3-(thiazolidine-3-carbonyl)azetidin-1-yl)-[1,2,4]triazolo[1,5-a]pyridin-2-yl)amino)pyridazine-3-carboxamide], the IC50 in assay [1] is 0.16 nM; in assay [2], 2.18 nM; in assay [3], 157 nM; in assay [4], over 10000 nM. For the same compound, in assay [1], the “Biochemical assay Selectivity fold (TYK2/JAK1)” value was 14 fold. The “Cellular assay Selectivity fold (TYK2/JAK1)” value in assay [3] is reported as over 64 fold.

(Values after patent publication US12606556B2, “TYK-2 inhibitor” (BEIGENE, LTD., priority 2020, dated 2026).)
